Reference: patent publication US9169260B2 (MERCK SHARP & DOHME CORP., priority 2011, dated 2015)

Each molecule was assayed against GST tagged IRAK-4 (Homo sapiens (Human), UniProt Q9NWZ3) (assay: IRAK-4 Kinase Assay (IMAP fluorescence polarization)). Conditions: 100 μM ATP, 30 minutes at 25° C.
Assay type: biochemical
Outline: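 Activity was read by IMAP fluorescence polarization, where phosphopeptide binding to M(III) nanoparticles raises FP. The 30-minute, 25° C reaction used 100 μM ATP, 100 nM RP7030 substrate and 0.5 nM GST-IRAK-4 in pH 7.2 Tris buffer with MgCl2, DTT and Tween 20.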

GST tagged IRAK-4, sequence (Q9NWZ3 whole entry): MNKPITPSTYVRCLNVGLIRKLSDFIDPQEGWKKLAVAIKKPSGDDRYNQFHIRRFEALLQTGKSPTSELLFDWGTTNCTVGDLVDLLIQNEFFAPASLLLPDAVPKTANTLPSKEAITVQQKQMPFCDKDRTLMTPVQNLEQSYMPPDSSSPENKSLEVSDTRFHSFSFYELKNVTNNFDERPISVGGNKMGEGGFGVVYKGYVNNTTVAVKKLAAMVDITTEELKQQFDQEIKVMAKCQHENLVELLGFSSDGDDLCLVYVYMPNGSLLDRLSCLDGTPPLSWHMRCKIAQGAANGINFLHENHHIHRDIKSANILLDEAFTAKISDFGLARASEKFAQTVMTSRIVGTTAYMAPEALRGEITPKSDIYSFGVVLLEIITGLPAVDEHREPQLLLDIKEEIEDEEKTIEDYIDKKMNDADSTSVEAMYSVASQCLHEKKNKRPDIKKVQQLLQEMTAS

Compound	IC50 [µM]
Cc1ccc(-n2nc(C3CCN(C4CC(N(C)C)C4)CC3)cc2NC(=O)c2cnn3cccnc23)nc1 (stereo not shown) [Example 269, N-[3-{1-[3-(dimethylamino)cyclobutyl]piperidin-4-yl}-1-(5-methylpyridin-2-yl)-1H-pyrazol-5-yl]pyrazolo[1,5-a]pyrimidine-3-carboxamide]	< 0.1
Cc1ccc(-n2nc(C3CCN(C(C)C)CC3)cc2NC(=O)c2cnn3cccnc23)nc1 [Example 270, N-{3-[1-(1-methylethyl)piperidin-4-yl]-1-(5-methylpyridin-2-yl)-1H-pyrazol-5-yl}pyrazolo[1,5-a]pyrimidine-3-carboxamide]	< 0.1
Cc1ccc(-n2nc(C3CCN(C4CCC(C(F)(F)F)CC4)CC3)cc2NC(=O)c2cnn3cccnc23)nc1 (stereo not shown) [Example 271, N-[1-(5-methylpyridin-2-yl)-3-{1-[4-(trifluoromethyl)cyclohexyl]piperidin-4-yl}-1H-pyrazol-5-yl]pyrazolo[1,5-a]pyrimidine-3-carboxamide]	< 0.1
Cc1ccc(-n2nc(C3CCN(C4CCC(C)C4)CC3)cc2NC(=O)c2cnn3cccnc23)nc1 (stereo not shown) [Example 272, N-{3-[1-(3-methylcyclopentyl)piperidin-4-yl]-1-(5-methylpyridin-2-yl)-1H-pyrazol-5-yl}pyrazolo[1,5-a]pyrimidine-3-carboxamide]	< 0.1
Cc1ccc(-n2nc(C3CCN(C4CC[C@@H](C)C4)CC3)cc2NC(=O)c2cnn3cccnc23)nc1 (stereo partly drawn) [Example 273, N-[3-{1-[(3R)-3-methylcyclopentyl]piperidin-4-yl}-1-(5-methylpyridin-2-yl)-1H-pyrazol-5-yl]pyrazolo[1,5-a]pyrimidine-3-carboxamide]	< 0.1
Cc1ccc(-n2nc(C3CCN(C4CCC4)CC3)cc2NC(=O)c2cnn3cccnc23)nc1 [Example 274, N-[3-(1-cyclobutylpiperidin-4-yl)-1-(5-methylpyridin-2-yl)-1H-pyrazol-5-yl]pyrazolo[1,5-a]pyrimidine-3-carboxamide]	< 0.1
Cc1ccc(-n2nc(C3CCN(C4CCN(C)CC4)CC3)cc2NC(=O)c2cnn3cccnc23)nc1 [Example 275, N-[3-(1′-methyl-1,4′-bipiperidin-4-yl)-1-(5-methylpyridin-2-yl)-1H-pyrazol-5-yl]pyrazolo[1,5-a]pyrimidine-3-carboxamide]	< 0.1
CCOC(=O)N1CCC(N2CCC(c3cc(NC(=O)c4cnn5cccnc45)n(-c4ccc(C)cn4)n3)CC2)CC1 [Example 276, ethyl 4-{1-(5-methylpyridin-2-yl)-5-[(pyrazolo[1,5-a]pyrimidin-3-ylcarbonyl)amino]-1H-pyrazol-3-yl}-1,4′-bipiperidine-1′-carboxylate]	< 0.1
Cc1ccc(-n2nc(C3CCN(C4CCCC(C)C4)CC3)cc2NC(=O)c2cnn3cccnc23)nc1 (stereo not shown) [Example 277, N-{3-[1-(3-methylcyclohexyl)piperidin-4-yl]-1-(5-methylpyridin-2-yl)-1H-pyrazol-5-yl}pyrazolo[1,5-a]pyrimidine-3-carboxamide]	< 0.1
CCN1CCC(N2CCC(c3cc(NC(=O)c4cnn5cccnc45)n(-c4ccc(C)cn4)n3)CC2)CC1 [Example 279, N-[3-(1′-ethyl-1,4′-bipiperidin-4-yl)-1-(5-methylpyridin-2-yl)-1H-pyrazol-5-yl]pyrazolo[1,5-a]pyrimidine-3-carboxamide]	< 0.1
CCCN1CCC(c2cc(NC(=O)c3cnn4cccnc34)n(-c3ccc(C)cn3)n2)CC1 [Example 280, N-[1-(5-methylpyridin-2-yl)-3-(1-propylpiperidin-4-yl)-1H-pyrazol-5-yl]pyrazolo[1,5-a]pyrimidine-3-carboxamide]	< 0.1
Cc1ccc(-n2nc(C3CCN(CC4CC4)CC3)cc2NC(=O)c2cnn3cccnc23)nc1 [Example 281, N-{3-[1-(cyclopropylmethyl)piperidin-4-yl]-1-(5-methylpyridin-2-yl)-1H-pyrazol-5-yl}pyrazolo[1,5-a]pyrimidine-3-carboxamide]	< 0.1
Cc1ccc(-n2nc(C3CCN(C4Cc5ccccc5C4)CC3)cc2NC(=O)c2cnn3cccnc23)nc1 [Example 282, N-{3-[1-(2,3-dihydro-1H-inden-2-yl)piperidin-4-yl]-1-(5-methylpyridin-2-yl)-1H-pyrazol-5-yl}pyrazolo[1,5-a]pyrimidine-3-carboxamide]	< 0.1

More lines, now with the values ahead:

IC50 [µM]	Compound
< 0.1	Cc1ccc(-n2nc(C3CN(Cc4cn[nH]c4)C3)cc2NC(=O)c2cnn3cccnc23)cc1 [Example 305, N-{1-(4-methylphenyl)-3-[1-(1H-pyrazol-4-ylmethyl)azetidin-3-yl]-1H-pyrazol-5-yl}pyrazolo[1,5-a]pyrimidine-3-carboxamide]
< 0.1	Cc1ccc(-n2nc(C3CN(Cc4cncs4)C3)cc2NC(=O)c2cnn3cccnc23)cc1 [Example 312, N-{1-(4-methylphenyl)-3-[1-(1,3-thiazol-5-ylmethyl)azetidin-3-yl]-1H-pyrazol-5-yl}pyrazolo[1,5-a]pyrimidine-3-carboxamide]
< 0.1	COc1ncccc1CN1CC(c2cc(NC(=O)c3cnn4cccnc34)n(-c3ccc(C)cc3)n2)C1 [Example 313, N-[3-{1-[(2-methoxypyridin-3-yl)methyl]azetidin-3-yl}-1-(4-methylphenyl)-1H-pyrazol-5-yl]pyrazolo[1,5-a]pyrimidine-3-carboxamide]
< 0.1	Cc1ccc(-n2nc(C3CN(Cc4cccnc4)C3)cc2NC(=O)c2cnn3cccnc23)cc1 [Example 314, N-{1-(4-methylphenyl)-3-[1-(pyridin-3-ylmethyl)azetidin-3-yl]-1H-pyrazol-5-yl}pyrazolo[1,5-a]pyrimidine-3-carboxamide]
< 0.1	COc1cccc(CN2CC(c3cc(NC(=O)c4cnn5cccnc45)n(-c4ccc(C)cc4)n3)C2)n1 [Example 315, N-[3-{1-[(6-methoxypyridin-2-yl)methyl]azetidin-3-yl}-1-(4-methylphenyl)-1H-pyrazol-5-yl]pyrazolo pyrimidine-3-carboxamide]

Same assay, conditions: 100 μM ATP, 30 minutes at 25° C.; μM

Compound	IC50 [µM]
Cc1ccc(-n2nc(C3CCCN(Cc4cncs4)C3)cc2NC(=O)c2cnn3cccnc23)cc1 (stereo not shown) [Example 284, N-{1-(4-methylphenyl)-3-[1-(1,3-thiazol-5-ylmethyl)piperidin-3-yl]-1H-pyrazol-5-yl}pyrazolo[1,5-a]pyrimidine-3-carboxamide]	< 1
Cc1ccc(-n2nc(C3CCCN(Cc4cscn4)C3)cc2NC(=O)c2cnn3cccnc23)cc1 (stereo not shown) [Example 288, N-{1-(4-methylphenyl)-3-[1-(1,3-thiazol-4-ylmethyl)piperidin-3-yl]-1H-pyrazol-5-yl}pyrazolo[1,5-a]pyrimidine-3-carboxamide]	< 1
Cc1ccc(-n2nc(C3CCCN(CC4CC4)C3)cc2NC(=O)c2cnn3cccnc23)cc1 (stereo not shown) [Example 297, N-{3-[1-(cyclopropylmethyl)piperidin-3-yl]-1-(4-methylphenyl)-1H-pyrazol-5-yl}pyrazolo[1,5-a]pyrimidine-3-carboxamide]	< 1
Cc1ccc(-n2nc(C3CCCN(Cc4nccs4)C3)cc2NC(=O)c2cnn3cccnc23)cc1 (stereo not shown) [Example 298, N-{1-(4-methylphenyl)-3-[1-(1,3-thiazol-2-ylmethyl)piperidin-3-yl]-1H-pyrazol-5-yl}pyrazolo[1,5-a]pyrimidine-3-carboxamide]	< 1

The remaining lines, values ahead:

IC50 [µM]	Compound
< 1	Cc1ccc(-n2nc(C3CN(Cc4cnccn4)C3)cc2NC(=O)c2cnn3cccnc23)cc1 [Example 304, N-{1-(4-methylphenyl)-3-[1-(pyrazin-2-ylmethyl)azetidin-3-yl]-1H-pyrazol-5-yl}pyrazolo[1,5-a]pyrimidine-3-carboxamide]
< 1	Cc1ccc(-n2nc(C3CN(Cc4ccn[nH]4)C3)cc2NC(=O)c2cnn3cccnc23)cc1 [Example 306, N-{1-(4-methylphenyl)-3-[1-(1H-pyrazol-5-ylmethyl)azetidin-3-yl]-1H-pyrazol-5-yl}pyrazolo[1,5-a]pyrimidine-3-carboxamide]
< 1	Cc1ccc(-n2nc(C3CN(Cc4nccs4)C3)cc2NC(=O)c2cnn3cccnc23)cc1 [Example 307, N-{1-(4-methylphenyl)-3-[1-(1,3-thiazol-2-ylmethyl)azetidin-3-yl]-1H-pyrazol-5-yl}pyrazolo[1,5-a]pyrimidine-3-carboxamide]
< 1	Cc1ccc(-n2nc(C3CN(Cc4ccccn4)C3)cc2NC(=O)c2cnn3cccnc23)cc1 [Example 308, N-{1-(4-methylphenyl)-3-[1-(pyridin-2-ylmethyl)azetidin-3-yl]-1H-pyrazol-5-yl}pyrazolo[1,5-a]pyrimidine-3-carboxamide]
< 1	Cc1ccc(-n2nc(C3CN(Cc4ccncc4)C3)cc2NC(=O)c2cnn3cccnc23)cc1 [Example 309, N-{1-(4-methylphenyl)-3-[1-(pyridin-4-ylmethyl)azetidin-3-yl]-1H-pyrazol-5-yl}pyrazolo[1,5-a]pyrimidine-3-carboxamide]
< 1	Cc1ccc(-n2nc(C3CN(Cc4cncnc4)C3)cc2NC(=O)c2cnn3cccnc23)cc1 [Example 310, N-{1-(4-methylphenyl)-3-[1-(pyrimidin-5-ylmethyl)azetidin-3-yl]-1H-pyrazol-5-yl}pyrazolo[1,5-a]pyrimidine-3-carboxamide]
< 1	Cc1ccc(-n2nc(C3CN(Cc4cc(C)on4)C3)cc2NC(=O)c2cnn3cccnc23)cc1 [Example 311, N-[3-{1-[(5-methylisoxazol-3-yl)methyl]azetidin-3-yl]-1-(4-methylphenyl)-1H-pyrazol-5-yl}pyrazolo[1,5-a]pyrimidine-3-carboxamide]
< 1	Cc1ccc(-n2nc(C3CN(Cc4ncco4)C3)cc2NC(=O)c2cnn3cccnc23)cc1 [Example 316, N-{1-(4-methylphenyl)-3-[1-(1,3-oxazol-2-ylmethyl)azetidin-3-yl]-1H-pyrazol-5-yl}pyrazolo[1,5-a]pyrimidine-3-carboxamide]
< 1	COc1ncc(CN2CC(c3cc(NC(=O)c4cnn5cccnc45)n(-c4ccc(C)cc4)n3)C2)cn1 [Example 317, N-[3-{1-[(2-methoxypyrimidin-5-yl)methyl]azetidin-3-yl}-1-(4-methylphenyl)-1H-pyrazol-5-yl]pyrazolo[1,5-a]pyrimidine-3-carboxamide]
